# Active and inactive are the calls of the source. No cut-off for these calls is given here.
# Tested on: SNB-19
# Test: Antitumor activity against human SNB-19 cells assessed as cell growth inhibition measured after 24 hrs by MTT colorimetric assay
# Assay type: functional, cell-based
# Conditions: SNB-19, 24 h
row,Compound,IC50
1,COc1ccc2c(OC)c3ccccc3c(-c3noc(C)c3C(=O)Nc3cc(C(=O)N(CCCN(C)C)CCCN(C)C)n(C)c3)c2c1Cl,12.6 µM
2,COc1ccc2c(OC)c3ccccc3c(-c3noc(C)c3C(=O)Nc3cc(C(=O)N(CCCN(C)C)CCCN(C)C)n(C)c3)c2c1,4.8 µM
3,Cc1onc(-c2c3ccccc3c(Oc3ccc4ccccc4c3)c3ccccc23)c1C(=O)Nc1cc(C(=O)N(CCCN(C)C)CCCN(C)C)n(C)c1,3.1 µM
4,Cc1onc(-c2c3ccccc3c(Oc3cccc4ccccc34)c3ccccc23)c1C(=O)Nc1cc(C(=O)N(CCCN(C)C)CCCN(C)C)n(C)c1,1.07 µM
5,Cc1onc(-c2c3ccccc3c(Oc3ccc(-c4ccccc4)cc3)c3ccccc23)c1C(=O)Nc1cc(C(=O)N(CCCN(C)C)CCCN(C)C)n(C)c1,0.58 µM
6,Cc1onc(-c2c3ccccc3c(Oc3ccccc3)c3ccccc23)c1C(=O)Nc1cc(C(=O)N(CCCN(C)C)CCCN(C)C)n(C)c1,1.03 µM
7,COc1c2ccccc2c(-c2noc(C)c2C(=O)Nc2cc(C(=O)N(CCCN(C)C)CCCN(C)C)n(C)c2)c2ccccc12,7.77 µM

# Tested on: Quadruplex DNA
# Test: Stabilization of c-Myc G-quadruplex DNA (unknown origin ) assessed as increase in melting temperature at 2 equivalent by CD spectroscopy
# Assay type: nucleic-acid assay
# Conditions: dose 2.0 equiv
row,Compound,Activity
1,Cc1onc(-c2c3ccccc3c(Oc3ccc(-c4ccccc4)cc3)c3ccccc23)c1C(=O)Nc1cc(C(=O)N(CCCN(C)C)CCCN(C)C)n(C)c1,Active
